pEC50: −log10 of the molar value. The source made the active and inactive calls. The rule behind the calls is not given here.

The target of the first test is T1, Glucagon-like peptide 2 receptor (Homo sapiens) (UniProt O95838).
T1 sequence (whole entry): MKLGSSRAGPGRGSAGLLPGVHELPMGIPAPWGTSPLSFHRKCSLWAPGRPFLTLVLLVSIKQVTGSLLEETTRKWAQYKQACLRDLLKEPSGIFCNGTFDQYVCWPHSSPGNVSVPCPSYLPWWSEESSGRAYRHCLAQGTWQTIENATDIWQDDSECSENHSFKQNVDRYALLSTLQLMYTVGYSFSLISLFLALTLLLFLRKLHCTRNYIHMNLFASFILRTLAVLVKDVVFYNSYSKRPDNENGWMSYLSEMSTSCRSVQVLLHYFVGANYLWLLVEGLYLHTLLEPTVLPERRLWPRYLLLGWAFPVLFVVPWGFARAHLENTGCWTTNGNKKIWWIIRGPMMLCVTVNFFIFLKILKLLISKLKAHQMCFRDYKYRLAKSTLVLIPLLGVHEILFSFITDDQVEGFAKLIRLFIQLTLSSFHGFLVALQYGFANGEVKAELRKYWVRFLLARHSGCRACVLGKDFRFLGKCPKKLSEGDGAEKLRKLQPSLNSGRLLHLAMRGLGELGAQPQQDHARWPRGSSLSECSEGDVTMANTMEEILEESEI
Briefly: Positive ago-allosteric modulation of GLP2R overexpressed in human SE302 cells assessed as placental alkaline phosphatase activation at 25 uM measured on day 3 by Alamar Blue assay relative to 10 pM GLP2. The format is cell-based. A general note: The colour change of resazurin is a common sign of viable cells or microbes.
Regarding `O/N=C(\CSc1ccccc1)c1cccc(Cl)c1`, the %max was 46%.
On the same count and under the same terms, the same measure for `O/N=C(\CSc1ccccc1)c1cc(C(F)(F)F)cc(C(F)(F)F)c1`: 517%.
On the same count and under the same terms, the same measure for `CC(C)(C)c1cccc(/C(CSc2ccccc2)=N/O)c1`: 244%.
On the same count and under the same terms, for `O/N=C(\CSc1ccccc1)c1cccc(Br)c1` the value was 42%.
Consider `COc1cccc(SC/C(=N\O)c2cc(Cl)sc2Cl)c1`, for which the %max was determined as 144%.
In the case of `O/N=C(\CSc1ccccc1)c1cccc(C(F)(F)F)c1`, the %max was 95%.
`COC(=O)c1ccccc1SC/C(=N\O)c1cc(Cl)sc1Cl`: the %max worked out at 284%.
On the same count and under the same terms, the same measure for `O/N=C(\CSc1ccccc1)c1cccc(F)c1`: 54%.
As for `O/N=C(\CSc1ccc(F)cc1)c1cc(Cl)sc1Cl`, the %max is 945%.
On the same count and under the same terms, the same measure for `O/N=C(\CSc1ccc(Cl)cc1)c1cc(Cl)sc1Cl`: 293%.

The target in a further test is T1, Glucagon-like peptide 2 receptor (Homo sapiens). Briefly: Positive ago-allosteric modulation of GLP2R overexpressed in human SE302 cells assessed as placental alkaline phosphatase activation at 6.3 uM measured on day 3 by Alamar Blue assay relative to 10 pM GLP2. The class given is cell-based.
In the case of `O/N=C(\CSc1ccccc1C(F)(F)F)c1cc(C(F)(F)F)nn1C1CCCC1`, the %max amounted to 610%.
Consider `COc1c(Br)cc(/C(CSc2ccccc2C(F)(F)F)=N/O)cc1C(C)(C)C`, for which the %max was determined as 714%.

Another test shares this target. Briefly: Positive ago-allosteric modulation of GLP2R overexpressed in human SE302 cells assessed as increase in GLP2 (11 to 33)-induced placental alkaline phosphatase activation at 10 uM measured on day 3 by Alamar Blue assay relative to GLP2. The class given is cell-based.
As for `CC(C)(C)c1cc(/C(CSc2ccccc2)=N/O)cc(C(C)(C)C)c1`, the result was Active.

For another test the target is unchanged. Briefly: (§1) Positive ago-allosteric modulation of GLP2R overexpressed in human SE302 cells assessed as placental alkaline phosphatase activation measured on day 3 by Alamar Blue assay. The format is cell-based.
As for `Cn1nc(C2CC2)cc1/C(CSc1ccccc1)=N/O`, the outcome was inactive.
On the same count and under the same terms, the same measure for `CCSC/C(=N\O)c1cc(Cl)sc1Cl`: “inactive”.
As for `Cc1cc(/C(CSc2ccccc2)=N/O)n(C)n1`, the result was inactive.
Same read-out and setting: for `O/N=C(\CSCCCc1ccccc1)c1cc(Cl)sc1Cl` the value was “inactive”; for `COc1cccc(SC/C(=N\O)c2cc(Cl)sc2Cl)c1`, “inactive”.
Same read-out and setting: for `O/N=C(\CSC1CCCCC1)c1cc(Cl)sc1Cl` the value was “inactive”; for `O/N=C(\CSCc1ccccc1)c1cc(Cl)sc1Cl`, “inactive”.
For `Cn1nc(C(C)(C)C)cc1/C(CSc1ccccc1)=N/O`, the result was inactive.
As to `COc1ccccc1SC/C(=N\O)c1cc(Cl)sc1Cl`, the result was inactive.
In the case of `CC(C)(C)SC/C(=N\O)c1cc(Cl)sc1Cl`, the outcome was inactive.
The same measure, in the same setting: for `O/N=C(\CSc1ccccc1)c1cccc(O)c1` the value was “inactive”.
On the same count and under the same terms, the same measure for `COc1c(C(=O)O)cc(/C(CSc2ccccc2)=N/O)cc1C(C)(C)C`: “inactive”; for `O/N=C(\CSc1ccccn1)c1cc(Cl)sc1Cl`: “inactive”; for `Cn1nc(C(F)(F)F)cc1/C(CSc1ccccc1)=N/O`: “inactive”.
Same read-out and setting: the same measure for `O=C(O)c1ccccc1SC/C(=N\O)c1cc(Cl)sc1Cl`: “inactive”.

The target in another test is T2, Glucagon-like peptide 2 receptor (Homo sapiens, UniProt O95838).
T2 sequence (O95838 whole entry): T1 sequence (whole entry)
The description is as §1. The class given is cell-based.
For orientation: pEC50 means the negative decadic logarithm of the EC50, by convention in mol/L. For the compound “H-DGSFSDEMNTILDNLAARDFINWLIQTKITD-OH [listing 1 of 2 here]”, the pEC50 was 7.51.

The next test deals with T1, Glucagon-like peptide 2 receptor (Homo sapiens). Kind of test: Positive ago-allosteric modulation of GLP2R overexpressed in human SE302 cells assessed as placental alkaline phosphatase activation at 50 uM measured on day 3 by Alamar Blue assay relative to 100 pM GLP2. The class given is cell-based.
Regarding `Cc1cnccc1SC/C(=N\O)c1cc(Cl)sc1Cl`, the %max is 44%.
For the compound `Cc1ccc(SC/C(=N\O)c2cc(Cl)sc2Cl)cc1`, the %max turned out to be 3%.
Still for that read-out and setting: for `O/N=C(\CSc1cccnc1)c1cc(Cl)sc1Cl` the value was 27%.

The target is the same in the next test. Kind of test: Positive ago-allosteric modulation of GLP2R overexpressed in human SE302 cells assessed as placental alkaline phosphatase activation at 50 uM measured on day 3 by Alamar Blue assay relative to 10 pM GLP2. The format is cell-based.
As to `Cc1ccc(SC/C(=N\O)c2cc(Cl)sc2Cl)cc1`, the %max turned out to be 65%.
On the same count and under the same terms, the same measure for `COc1ccccc1SC/C(=N\O)c1cc(Cl)sc1Cl`: 78%.
On the same count and under the same terms, for `O/N=C(\CSc1ccccc1)c1ccccc1` the value was 4%.
Still for that read-out and setting: for `COc1ccc(SC/C(=N\O)c2cc(Cl)sc2Cl)cc1` the value was 217%; for `N#Cc1cccc(/C(CSc2ccccc2)=N/O)c1`, 8%.

The next test shares this target. Briefly: Positive ago-allosteric modulation of GLP2R overexpressed in human SE302 cells assessed as GLP2 (3 to 33)-induced placental alkaline phosphatase activation at 10 uM measured on day 3 by Alamar Blue assay relative to GLP2. The class given is cell-based.
For `CC(C)(C)c1cc(/C(CSc2ccccc2)=N/O)cc(C(C)(C)C)c1`, the result was Active.

For another test the target is unchanged. Briefly: Positive ago-allosteric modulation of GLP2R overexpressed in human SE302 cells assessed as placental alkaline phosphatase activation at 25 uM measured on day 3 by Alamar Blue assay relative to 100 pM GLP2. The class given is cell-based.
For the compound `CCc1ccccc1SC/C(=N\O)c1cc(Cl)sc1Cl`, the %max was determined as 63%.
Consider `O/N=C(\CSc1cccc2ccccc12)c1cc(Cl)sc1Cl`, for which the %max came to 23%.
Same read-out and setting: for `COc1cccc(/C(CSc2ccccc2)=N/O)c1` the value was 8%; for `O/N=C(\CSc1ccccc1)c1cc(C(F)(F)F)cc(C(F)(F)F)c1`, 29%.
Still for that read-out and setting: the same measure for `CC(C)(C)c1cc(/C(CSc2ccccc2)=N/O)cc(C(C)(C)C)c1`: 31%.
Still for that read-out and setting: for `CC(C)n1nc(C(F)(F)F)cc1/C(CSc1ccccc1)=N/O` the value was 87%; for `CC(C)(C)c1cccc(/C(CSc2ccccc2)=N/O)c1`, 18%.
`Cc1cc(F)ccc1SC/C(=N\O)c1cc(Cl)sc1Cl`: the %max turned out to be 124%.
On the same count and under the same terms, for `CCc1cnccc1SC/C(=N\O)c1cc(Cl)sc1Cl` the value was 59%.
Turning to `Cn1nc(-c2ccccc2)cc1/C(CSc1ccccc1)=N/O`, the %max is 14%.
The same measure, in the same setting: the same measure for `COC(=O)c1ccccc1SC/C(=N\O)c1cc(Cl)sc1Cl`: 39%.
`Cc1ccccc1SC/C(=N\O)c1cc(Cl)sc1Cl`: the %max was determined as 90%.
The same measure, in the same setting: the same measure for `O/N=C(\CSc1cccc(F)c1)c1cc(Cl)sc1Cl`: 73%.
For the compound `Cc1cccc(SC/C(=N\O)c2cc(Cl)sc2Cl)c1`, the %max was determined as 30%.
The same measure, in the same setting: for `O/N=C(\CSc1ccccc1Cl)c1cc(Cl)sc1Cl` the value was 60%.
On the same count and under the same terms, for `CCCOc1cccc(/C(CSc2ccccc2)=N/O)c1` the value was 9%; for `Cc1cccc(SC/C(=N\O)c2cc(Cl)sc2Cl)c1C`, 54%.
Still for that read-out and setting: for `O/N=C(\CSc1cccc(Cl)c1)c1cc(Cl)sc1Cl` the value was 53%; for `O/N=C(\CSc1cccs1)c1cc(Cl)sc1Cl`, 40%.
Take `CC(C)(C)OC(=O)c1cc(/C(CSc2ccccc2)=N/O)cc(C(C)(C)C)c1O`: the %max turned out to be 4%.
The same measure, in the same setting: the same measure for `CC(C)Oc1cccc(/C(CSc2ccccc2)=N/O)c1`: 14%.
For `COc1cccc(SC/C(=N\O)c2cc(Cl)sc2Cl)c1C`, the %max stood at 31%.
The same measure, in the same setting: the same measure for `O/N=C(\CSc1ccccc1)c1cc(C(F)(F)F)nn1C1CCCC1`: 127%; for `O/N=C(\CSc1ccccc1)c1cc(C(F)(F)F)nn1C1CCC1`: 99%; for `O/N=C(\CSc1ccccc1F)c1cc(Cl)sc1Cl`: 80%.
Same read-out and setting: the same measure for `Cn1nc(C(F)(F)F)cc1/C(CSc1ccccc1)=N/O`: 13%; for `O/N=C(\CSc1ccncc1C(F)(F)F)c1cc(Cl)sc1Cl`: 143%; for `CCCn1nc(C(F)(F)F)cc1/C(CSc1ccccc1)=N/O`: 71%.
On the same count and under the same terms, the same measure for `O/N=C(\CSc1ccc(F)cc1)c1cc(Cl)sc1Cl`: 134%; for `O/N=C(\CSc1ccc(C(F)(F)F)cc1)c1cc(Cl)sc1Cl`: 16%; for `Cc1cccc(C)c1SC/C(=N\O)c1cc(Cl)sc1Cl`: 10%.
Regarding `O/N=C(\CSc1ccc(Cl)cc1)c1cc(Cl)sc1Cl`, the %max was 17%.

The target is the same in another test. Kind of test: Positive ago-allosteric modulation of GLP2R overexpressed in human SE302 cells assessed as placental alkaline phosphatase activation at 6.3 uM measured on day 3 by Alamar Blue assay relative to 100 pM GLP2. The class given is cell-based.
Take `O/N=C(\CSc1ccccc1C(F)(F)F)c1cc(C(F)(F)F)nn1C1CCCC1`: the %max is 83%.
The same measure, in the same setting: the same measure for `COc1c(Br)cc(/C(CSc2ccccc2C(F)(F)F)=N/O)cc1C(C)(C)C`: 97%.

For the next test the target is unchanged. Kind of test: Positive ago-allosteric modulation of GLP2R overexpressed in human SE302 cells assessed as placental alkaline phosphatase activation measured on day 3 by Alamar Blue assay relative to GLP2. The format is cell-based.
Take “H-DGSFSDEMNTILDNLAARDFINWLIQTKITD-OH [listing 2 of 2 here]”: the %max was found to be 59%.

For a further test the target is unchanged. Briefly: Positive ago-allosteric modulation of GLP2R overexpressed in human SE302 cells assessed as placental alkaline phosphatase activation at 12.5 uM measured on day 3 by Alamar Blue assay relative to 100 pM GLP2. The class given is cell-based.
Regarding `O/N=C(\CSc1ccncc1-c1ccccc1)c1cc(Cl)sc1Cl`, the %max turned out to be 102%.
For the compound `COc1c(Br)cc(/C(CSc2ccccc2)=N/O)cc1C(C)(C)C`, the %max amounted to 43%.
Regarding `CCC(CC)n1nc(C(F)(F)F)cc1/C(CSc1ccccc1)=N/O`, the %max stood at 31%.
Same read-out and setting: the same measure for `COc1c(C(=O)OC(C)(C)C)cc(/C(CSc2ccccc2)=N/O)cc1C(C)(C)C`: 12%; for `Cc1ccc(SC/C(=N\O)c2cc(Cl)sc2Cl)c(C)c1`: 58%; for `O/N=C(\CSc1ccccc1)c1cc(C(F)(F)F)nn1Cc1ccccc1`: 59%.
The same measure, in the same setting: the same measure for `Cc1ccc(C)c(SC/C(=N\O)c2cc(Cl)sc2Cl)c1`: 40%.
Same read-out and setting: the same measure for `COc1c(N(C)C)cc(/C(CSc2ccccc2)=N/O)cc1C(C)(C)C`: 43%; for `O/N=C(\CSc1ccccc1-c1ccccc1)c1cc(Cl)sc1Cl`: 84%.
`CCC(C)n1nc(C(F)(F)F)cc1/C(CSc1ccccc1)=N/O` (stereo not given): the %max was 110%.
The same measure, in the same setting: the same measure for `CC(C)(C)c1ccccc1SC/C(=N\O)c1cc(Cl)sc1Cl`: 40%; for `O/N=C(\CSc1ccccc1C(F)(F)F)c1cc(Cl)sc1Cl`: 58%.

(Values after ChEMBL document CHEMBL2176875, “Ago-allosteric modulators of human glucagon-like peptide 2 receptor” (Bioorg Med Chem Lett, 2012).)
